In assay [1] the target is 6×HIS-tankyrase 1 (1091-1325) (Homo sapiens (Human), UniProt O95271). Put plainly: biochemical. The class given is biochemical. The conditions noted are these: […] enzyme, 400 nM NAD, 60 minutes at room temperature; read-out: TNKS1 IP IC50.
The subject of assay [2] is Axin2 in SW480 cells. As to the kind of experiment: cells. The format is cell-based. The conditions noted are these: Homo sapiens, read-out: Axin2 384 IF EC50 IP. Here is the method: Using a VPrep, 10 μL of compound/controls was transferred from the compound plate to 60 μL in the cell plate (final 0.5% DMSO, 70 μL). The mixture was incubated for 24 hours at 37° C. at 5% CO2.
The extra media was tapped out. 50 μL of 4% paraformaldehyde (Fisher, AA433689M), 0.1% Triton (Sigma, X100-100 ML) in PBS were added, and the mixture was incubated for 15 minutes at room temperature. […] The extra media was tapped out and to this was added 50 μL of buffer containing Axin2 Antibody (Sigma, SAB1100677-200 µL) at 1:10000 in PBS, 0.1% Tween-20, 1% Normal Goat Serum. The mixture was incubated for 2 hours at room temperature or overnight at 4° C. The cells were then washed twice with PBS, 0.1% Tween-20, and 1% Normal Goat Serum. […] The mixture was then incubated for 30 minutes at room temperature. The cells were then washed twice with PBS, 0.1% Tween-20, and 1% Normal Goat Serum. 50-100 μL PBS was added, and the mixture was covered with a plate seal (Fisher, NC9425162). An ArrayScan (a variation of the compartmental analysis protocol was optimized) was used to scan the plates, and data was analyzed using MEAN_RingSpotAvgIntenCh2). The Axin2 accumulation POC was calculated, and the EC50 was determined using Genedata Screener software to report Axin2 activity.

Assay [3] has as its system total β-catenin in SW480 colorectal cells. Put plainly: cells. The class given is cell-based. The note with it: Homo sapiens. The protocol: Total β-Catenin MSD 96-Well Plate Assay for SW480 Cells
SW480 colorectal cells were seeded at a density of 10,000/well in CellBIND 96-well plates (Corning catalog no. 3300) in 60 μL of normal growth medium (MEM alpha supplemented with 10% heat inactivated FBS, GlutaMAX, pyruvate, and 10 mM HEPES).
A 10-point, 3-fold dilution series for each TNKS inhibitor was constructed in a 96-well “stock” plate. […] The plates were incubated at 37° C. for 40 to 48 hours. The media was removed from the CellBIND plate via plate inversion and gentle shaking and the inverted plate was touched to a paper towel and immediately placed on ice. […] Plates containing cell lysates were sealed and shaken for one hour at 4° C. and then quickly frozen in a −80° C. for approximately 15 to 30 minutes followed by gradually thawing at 4° C. Finally, lysate containing plates were centrifuged @1000×g (2073 rpm) for 10 minutes at 4° C.
The sealed MSD plate was incubated overnight in a cold room with gentle shaking. The MSD plate was then blocked with 150 μL of Blocker “A” per well and incubated overnight at 4° C. with vigorous shaking. The blocked MSD plate was washed 4 times with 150 μL/well TBS-T wash buffer (150 mM NaCl, 50 mM Tris, pH 7.5, 0.02% Tween-20). Cell lysates (75 μL) were transferred to prepared MSD plates and incubated at 4° C. ON with gentle shaking. […] The detection antibody was incubated for 1 hour at room temperature with vigorous shaking after which plates were washed 3 times with 150 μL/well TBS-T wash buffer. Plates were processed for analysis by the addition of 150 μL/well MSD Read 4× Buffer T with surfactant (catalog no. R92TC-2; diluted 1:3 in deionized water) and were read on the SECTOR Imager 6000.

Where [4] appears, read: SW480, 24 h, SW480 cells, 24 hours.
The mark [5] stands for this setting: SW480, read-out: SW480-Total β-Catenin IC50 IP.
The mark [6] stands for this setting: SW480 cells, 40 to 48 hours, top concentration 10 μM, read-out: SW480-Total β-Catenin IC50 IP.

pEC50, pIC50: −log10 of the molar value. Where two headings read alike, the source gives them in different places.

6×HIS-tankyrase 1 (1091-1325), sequence (O95271 1091-1325): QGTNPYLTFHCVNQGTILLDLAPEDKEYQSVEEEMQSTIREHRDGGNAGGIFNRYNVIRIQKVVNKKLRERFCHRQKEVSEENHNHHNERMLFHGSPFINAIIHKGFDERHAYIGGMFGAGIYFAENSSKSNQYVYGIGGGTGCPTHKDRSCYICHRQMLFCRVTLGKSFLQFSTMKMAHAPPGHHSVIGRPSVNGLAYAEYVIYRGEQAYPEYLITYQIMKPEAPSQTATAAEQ

With `CC1(C)OC(=O)N(c2ccn3c(Nc4ccnc5cccnc45)nnc3c2)[C@H]1c1ccccc1` [Example 71, (S)-3-(3-((1,5-naphthyridin-4-yl)amino)-[1,2,4]triazolo[4,3-a]pyridin-7-yl)-5,5-dimethyl-4-phenyloxazolidin-2-one], the pIC50 in assay [1] was 6.30. Besides, the pEC50 in assay [2] (setting [4]) was < 4.60.

In the case of `CC1(C)OC(=O)N([C@H]2CC[C@H](c3cnc(N)c(-c4ncccn4)c3)CC2)[C@H]1c1ccccc1` (racemic) [Example 73, 3-((1r,4r)-4-(6-amino-5-(pyrimidin-2-yl)pyridin-3-yl)cyclohexyl)-5,5-dimethyl-4-phenyloxazolidin-2-one], in assay [3] (setting [5]), the pIC50 was 7.02. Further, the pEC50 in assay [2] (SW480, 24 h) is 6.69.

On to `CC1(C)OC(=O)N([C@H]2CC[C@H](n3c(=O)[nH]c4cnccc43)CC2)[C@@H]1c1ccccc1` [Example 24, (R)-5,5-dimethyl-3-((1 r,4R)-4-(2-oxo-2,3-dihydro-1H-imidazo[4,5-c]pyridin-1-yl)cyclohexyl)-4-phenyloxazolidin-2-one], for which the pIC50 in assay [3] (setting [6]) is 5.83. For the same molecule, the pEC50 in assay [2] (setting [4]) is 5.33.

For the molecule `CC1(C)OC(=O)N([C@H]2CC[C@H](n3c(=O)[nH]c4c(F)c(C#N)ccc43)CC2)[C@H]1c1ccccc1` [Example 60, 1-((1S,4r)-4-((S)-5,5-dimethyl-2-oxo-4-phenyloxazolidin-3-yl)cyclohexyl)-4-fluoro-2-oxo-2,3-dihydro-1H-benzo[d]imidazole-5-carbonitrile], the pIC50 in assay [3] (setting [6]) is 7.12. In addition, the pEC50 in assay [2] (SW480 cells, 24 hours) is 7.21.

Turning to `CC1(C)OC(=O)N([C@H]2CC[C@H](n3c(=O)[nH]c4c(C#N)cccc43)CC2)[C@H]1c1ccccc1` [Example 51, 1-((1S,4r)-4-((S)-5,5-dimethyl-2-oxo-4-phenyloxazolidin-3-yl)cyclohexyl)-2-oxo-2,3-dihydro-1H-benzo[d]imidazole-4-carbonitrile], the pIC50 in assay [3] (setting [6]) is 6.56. In assay [2] (SW480 cells, 24 hours), the pEC50 was 6.34.

`CC1(C)OC(=O)N([C@H]2CC[C@@H](c3cnc(N)c(-c4ncccn4)c3)CC2)[C@H]1c1ccccc1` (racemic) [Example 72, 3-((1s,4s)-4-(6-amino-5-(pyrimidin-2-yl)pyridin-3-yl)cyclohexyl)-5,5-dimethyl-4-phenyloxazolidin-2-one]: in assay [3] (setting [5]), the pIC50 is 5.18. Further, the pEC50 in assay [2] (SW480, 24 h) was 5.24.

Consider `CC1(C)OC(=O)N(c2ccc(-c3cc(-c4ncco4)c[nH]c3=O)cc2)[C@H]1c1ccccc1` [Example 116, (S)-5,5-dimethyl-3-(4-(5-(oxazol-2-yl)-2-oxo-1,2-dihydropyridin-3-yl)phenyl)-4-phenyloxazolidin-2-one], for which the pIC50 in assay [3] (setting [6]) is 6.04. Also, in assay [2] (setting [4]), the pEC50 is < 5.20.

Regarding `CC1(C)OC(=O)N([C@H]2CC[C@H](n3c(=O)[nH]c4ncccc43)CC2)[C@H]1c1ccccc1` [Example 30, (S)-5,5-dimethyl-3-((1r,4S)-4-(2-oxo-2,3-dihydro-1H-imidazo[4,5-b]pyridin-1-yl)cyclohexyl)-4-phenyloxazolidin-2-one], the pIC50 in assay [3] (setting [6]) was 5.95. Moreover, the pEC50 in assay [2] (setting [4]) was 5.70.

As to `COc1ccc([C@H]2N(c3ccc(C(=O)Nc4cccc5cccnc45)cc3)C(=O)OC2(C)C)cc1` [Example 112, (R)-4-(4-(4-methoxyphenyl)-5,5-dimethyl-2-oxooxazolidin-3-yl)-N-(quinolin-8-yl)benzamide], the pIC50 in assay [1] was 5.56. Further, the pEC50 in assay [2] (setting [4]) was < 4.60.

On to `CC1(C)OC(=O)N([C@H]2CC[C@H](n3c(=O)[nH]c4cccnc43)CC2)C1c1ccccc1` (stereo partly drawn) [Example 36, (R+S) 5,5-dimethyl-3-((1r,4r)-4-(2-oxo-1H-imidazo[4,5-b]pyridin-3(2H)-yl)cyclohexyl)-4-phenyloxazolidin-2-one], for which, in assay [3] (setting [6]), the pIC50 is 5.91. In addition, the pEC50 in assay [2] (setting [4]) was 5.36.

With `CC1(C)OC(=O)N([C@H]2CC[C@H](n3c(=O)[nH]c4cc(Cl)ccc43)CC2)[C@H]1c1ccccc1` [Example 29, (S)-3-((1r,4S)-4-(5-chloro-2-oxo-2,3-dihydro-1H-benzo[d]imidazol-1-yl)cyclohexyl)-5,5-dimethyl-4-phenyloxazolidin-2-one], the pIC50 in assay [3] (setting [6]) was 6.27. In addition, in assay [2] (setting [4]), the pEC50 is 5.59.

`CC1(C)OC(=O)N([C@H]2CC[C@H](c3cnc(N)c(-c4ncccn4)c3)CC2)[C@@H]1c1ccccc1` [Example 75, (R)-3-((1r,4R)-4-(6-amino-5-(pyrimidin-2-yl)pyridin-3-yl)cyclohexyl)-5,5-dimethyl-4-phenyloxazolidin-2-one]: the pIC50 in assay [3] (setting [5]) is 5.80. Further, the pEC50 in assay [2] (SW480, 24 h) was 5.57.

For `CC1(C)OC(=O)N([C@H]2CC[C@H](n3c(=O)[nH]c4cc(Br)cnc43)CC2)[C@H]1c1ccccc1` [Example 56, (S)-3-((1r,4S)-4-(6-bromo-2-oxo-1H-imidazo[4,5-b]pyridin-3(2H)-yl)cyclohexyl)-5,5-dimethyl-4-phenyloxazolidin-2-one], the pIC50 in assay [3] (setting [6]) is 6.19. For the same molecule, the pEC50 in assay [2] (SW480 cells, 24 hours) was 6.17.

For the molecule `CC1(C)OC(=O)N(c2ccc(C(=O)Nc3cccc4cccnc34)cc2)[C@@H]1c1cccc(F)c1` [Example 109, (R)-4-(4-(3-fluorophenyl)-5,5-dimethyl-2-oxooxazolidin-3-yl)-N-(quinolin-8-yl)benzamide], the pIC50 in assay [1] was 5.26. For the same molecule, in assay [2] (setting [4]), the pEC50 was < 4.60.

Consider `O=C(Nc1cccc2cccnc12)c1ccc(N2C(=O)OC3(CCCCC3)C2c2ccccc2)cc1` (stereo not drawn) [Example 46, (R+S) 4-(2-oxo-4-phenyl-1-oxa-3-azaspiro[4.5]decan-3-yl)-N-(quinolin-8-yl)benzamide], for which the pIC50 in assay [1] was 5.29. In addition, in assay [2] (SW480, 24 h), the pEC50 is < 4.60.

Regarding `CC1(C)OC(=O)N([C@H]2CC[C@H](c3cnc(N)c(-c4ncccn4)c3)CC2)[C@H]1c1ccccc1` [Example 74, (S)-3-((1r,4S)-4-(6-amino-5-(pyrimidin-2-yl)pyridin-3-yl)cyclohexyl)-5,5-dimethyl-4-phenyloxazolidin-2-one], the pIC50 in assay [3] (setting [5]) is 7.04. The pEC50 in assay [2] (SW480, 24 h) is 7.28.

`CC1(C)OC(=O)N(c2ccc(C(=O)Nc3cccc4cccnc34)cc2)[C@@H]1c1ccncc1` [Example 125, (R)-4-(5,5-dimethyl-2-oxo-4-(pyridin-4-yl)oxazolidin-3-yl)-N-(quinolin-8-yl)benzamide]: the pIC50 in assay [1] was 5.10. The pEC50 in assay [2] (setting [4]) is < 4.60.

For the molecule `CC1(C)OC(=O)N([C@H]2CC[C@H](n3c(=O)[nH]c4cncnc43)CC2)[C@H]1c1ccccc1` [Example 50, (S)-5,5-dimethyl-3-((1r,4S)-4-(8-oxo-7H-purin-9(8H)-yl)cyclohexyl)-4-phenyloxazolidin-2-one], the pIC50 in assay [3] (setting [6]) is 6.53. Also, the pEC50 in assay [2] (setting [4]) was 6.41.

As to `CC1(C)OC(=O)N([C@H]2CC[C@H](n3c(=O)[nH]c4ncccc43)CC2)[C@@H]1c1ccccc1` [Example 31, (R)-5,5-dimethyl-3-((1r,4R)-4-(2-oxo-2,3-dihydro-1H-imidazo[4,5-b]pyridin-1-yl)cyclohexyl)-4-phenyloxazolidin-2-one], the pIC50 in assay [3] (setting [6]) is 5.58. Moreover, in assay [2] (setting [4]), the pEC50 was 4.76.

Take `CC1(C)OC(=O)N([C@H]2CC[C@H](n3c(=O)[nH]c4cc(C#N)cnc43)CC2)[C@H]1c1ccccc1` [Example 57, 3-((1S,4r)-4-((S)-5,5-dimethyl-2-oxo-4-phenyloxazolidin-3-yl)cyclohexyl)-2-oxo-2,3-dihydro-1H-imidazo[4,5-b]pyridine-6-carbonitrile]: in assay [3] (setting [6]), the pIC50 is 6.76. In addition, in assay [2] (SW480 cells, 24 hours), the pEC50 is 6.10.

For `CC1(C)OC(=O)N(c2ccc(C(=O)Nc3cccc4cccnc34)cc2)[C@@H]1c1cccnc1` [Example 10, (R)-4-(5,5-dimethyl-2-oxo-4-(pyridin-3-yl)oxazolidin-3-yl)-N-(quinolin-8-yl)benzamide], in assay [1], the pIC50 is 5.35. The negative-log EC50 (pEC50) in assay [2] (setting [4]) was < 4.60.

By pIC50 is commonly meant −log10 of the IC50, conventionally taken in molar units. One may read the pEC50 as the negative decadic logarithm of the EC50, by convention in mol/L.

(Values after patent US9340549B2, “Oxazolidinone compounds and derivatives thereof” (priority 2012, dated 2016).)
